Earlier results on one substance are cited in US6864048B2, “Factorial chemical libraries” (Affymetrix, Inc., priority 1993, dated 2005).

For the series, the target named is antibody. The settings on record: binding to the antibody; peptide identified by recursive retrosynthesis of a hexapeptide library.

Turning to DVPYDA, the Kd is 30 nM.
